Values of other authors, collected in US20120121700A1, “PHARMACEUTICAL FORMULATIONS COMPRISING VALGANCICLOVIR” (priority 2010, published 2012).

Settings: oral administration; background statement taken from U.S. Pat. No. 6,083,953

Compound	bioavailability when administered orally
CC(C)[C@H](N)C(=O)OCC(CO)OCn1cnc2c(=O)[nH]c(N)nc21.Cl (stereo partly drawn) [Valganciclovir hydrochloride, L-valine, 2-[(2-amino-1,6-dihydro-6-oxo-9H-purin-9-yl)methoxy]-3-hydroxypropyl ester, monohydrochloride]	better bioavailability than ganciclovir given orally
Nc1nc(O)c2ncn(COC(CO)CO)c2n1 [gancilcovir, ganciclovir]	poor
